Measured values as given in patent publication US20230096028A1, “BICYCLIC HETEROCYCLYL COMPOUNDS AND USES THEREOF” (Revolution Medicines, Inc., priority 2019, published 2023).
Like-named read-outs stand apart in the source and are kept apart here.

Assays:
[1] = target: T1, SOS1 catalytic domain (residues 564-1049) (Homo sapiens, UniProt Q07889); assay: Mode of Action Assay: inhibition of SOS1 nucleotide exchange activity (SOS1 TR-FRET IC50 Assay)
T1 sequence (Q07889 564-1049): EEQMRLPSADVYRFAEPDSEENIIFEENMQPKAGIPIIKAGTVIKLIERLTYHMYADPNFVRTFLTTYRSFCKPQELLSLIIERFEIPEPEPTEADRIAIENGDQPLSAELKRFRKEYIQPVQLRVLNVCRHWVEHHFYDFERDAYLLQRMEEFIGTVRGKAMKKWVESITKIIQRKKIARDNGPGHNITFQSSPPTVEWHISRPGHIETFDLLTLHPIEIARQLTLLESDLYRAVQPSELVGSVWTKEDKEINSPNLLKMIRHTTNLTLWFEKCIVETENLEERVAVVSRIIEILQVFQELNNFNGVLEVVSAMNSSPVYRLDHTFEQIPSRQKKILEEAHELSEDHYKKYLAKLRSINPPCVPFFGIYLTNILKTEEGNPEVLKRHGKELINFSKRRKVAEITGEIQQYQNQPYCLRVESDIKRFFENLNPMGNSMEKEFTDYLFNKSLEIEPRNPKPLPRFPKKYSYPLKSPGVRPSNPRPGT

[2] = target: T1, SOS1 catalytic domain (residues 564-1049); assay: Potency Assay: binding affinity to SOS1 using Surface Plasmon Resonance (SPR); design: SOS1 catalytic domain (residues 564-1049) immobilized on a sensor chip; conditions: immobilized SOS1 catalytic domain (residues 564-1049), read-out: SOS1 SPR Equilibrium Kd
Procedure, shortened: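 Avi-tagged SOS1 catalytic domain captured on streptavidin chip (~6000 RU) in 0.01 M HEPES, 0.15 M NaCl, 0.05% P20. Compound dilution series flowed at 50 μL/min for association, then buffer for dissociation, with double reference subtraction. Kd derived from end-of-association binding response plotted against concentration.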

[3] = tested on: PC-9 cells (EGFR Ex19Del); assay: Potency Assay: pERK (SOS1 pERK IC50 Assay, AlphaLISA SureFire Ultra p-ERK1/2); format: cell-based; conditions: Homo sapiens, read-out: SOS1 pERK IC50
Procedure, shortened: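 PC-9 (EGFR Ex19Del) cells plated overnight, then treated 1 h at 37° C. with 10-point 3-fold dilutions (top 10 μM final) in duplicate. Lysate pERK1/2 measured by AlphaLISA SureFire Ultra; IC50 from 4-parameter sigmoidal fit.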

[4] = PC-9 cells (EGFR Ex19Del), 1 hour incubation, AlphaLISA p-ERK1/2

Structure (SMILES)	IC50 [1] [nM]	Kd [2] [nM]	IC50 [3, 4] [nM]	IC50 ([3]; PC-9, 1 h) [nM]
C[C@@H](Nc1nc(CN2CCOCC2)nc2c1CN(C(=O)N1CCOCC1)C2)c1cc(N)cc(C(F)(F)F)c1 [Example 504, N-[(1R)-1-[3-amino-5-(trifluoromethyl)phenyl]ethyl]-2-[(morpholin-4-yl)-methyl]-6-(morpholine-4-carbonyl)-5H,6H,7H-pyrrolo[3,4-d]pyrimidin-4-amine]	< 1000	> 400	> 1000	–
COC1(C(=O)N2Cc3nc(Cl)nc(N[C@H](C)c4cccc(C(F)F)c4F)c3C2)CCN(C)CC1 [Example 323]	< 1000	< 400	< 1000	–
C[C@@H](Nc1nc(OC(F)(F)F)nc2c1CN(C(=O)N1CCOCC1)C2)c1cc(N)cc(C(F)(F)F)c1 [Example 126, N-[(1R)-1-[3-amino-5-(trifluoro-methyl)phenyl]ethyl]-6-(morpholine-4-carbonyl)-2-(trifluoro-methoxy)-5H,6H,7H-pyrrolo-[3,4-d]pyrimidin-4-amine]	> 1000	> 400	< 1000	–
C[C@@H](Nc1nc(Cl)nc2c1CN(S(=O)(=O)N1CCOCC1)C2)c1cc(N)cc(C(F)(F)F)c1 [Example 24, N-[(1R)-1-[3-amino-5-(trifluoromethyl)phenyl]ethyl]-2-chloro-6-morpholinosulfonyl-5,7-dihydropyrrolo[3,4-d]pyrimidin-4-amine]	< 1000	< 400	< 1000	–
C[C@@H](Nc1ncnc2c1CC(N1CC3(COC3)C1)CC2)c1cccc(C(F)(F)CO)c1 (stereo partly drawn) [Example 439]	< 1000	< 400	< 1000	–
C[C@@H](Nc1nc(Cl)nc2c1CN(C(=O)N1CCN(C)C(C(F)(F)F)C1)C2)c1cccc(C(F)F)c1F (stereo partly drawn) [Example 418]	< 1000	< 400	< 1000	–
C[C@@H](Nc1nc(Cl)nc2c1CN(C(=O)N1CCN(C3COC3)CC1)C2)c1cccc(C(F)(F)CO)c1 [Example 357]	< 1000	< 400	< 1000	–
CC(C)N1CC(C)(C(=O)N2Cc3nc(Cl)nc(N[C@H](C)c4cccc(C(F)F)c4F)c3C2)C1 [Example 338]	< 1000	< 400	< 1000	–
C[C@@H](Nc1nc(C2CN(C)C2)nc2c1CN(C(=O)N1CCOCC1)C2)c1cccc(C(F)F)c1F [Example 447, (R)-(4-((1-(3-(difluoromethyl)-2-fluorophenyl)ethyl)amino)-2-(1-methylazetidin-3-yl)-5,7-dihydro-6H-pyrrolo[3,4-d]pyrimidin-6-yl)(morpholino)methanone]	< 1000	< 400	> 1000	–
C[C@@H](Nc1nc(Cl)nc2c1CN(C(=O)N1CCOCC1)C2)c1cccc(C(F)(F)C(C)(C)O)c1F [Example 493]	< 1000	< 400	< 1000	–
C[C@@H](Nc1nc(Cl)nc2c1CN(C(=O)N1CCOCC1)C2)c1cccc(C(C)(C)C#N)c1 [Example 482, 2-{3-[(1R)-1-{[2-chloro-6-(morpholine-4-carbonyl)-5H,6H,7H-pyrrolo[3,4-d]pyrimidin-4-yl]amino}ethyl]phenyl}-2-methylpropanenitrile]	< 1000	> 400	–	> 1000
C[C@@H](Nc1nc(C#N)nc2c1CN(C(=O)N1CCOCC1)C2)c1cc(N)cc(C(F)(F)F)c1 [Example 123, 4-{[(1R)-1-[3-amino-5-(trifluoromethyl)phenyl]ethyl]amino}-6-(morpholine-4-carbonyl)-5H,6H,7H-pyrrolo[3,4-d]pyrimidine-2-carbonitrile]	< 1000	< 400	< 1000	–
C[C@@H](Nc1nc(Cl)nc2c1CN(C(=O)N1CCCNCC1)C2)c1cccc(C(F)(F)F)c1 [Example 377]	< 1000	< 400	< 1000	–
C[C@@H](Nc1nc(Cl)nc2c1CN(C(=O)N1CC3COCC(C1)N3)C2)c1cccc(C(F)F)c1F [Example 385]	< 1000	< 400	< 1000	–
C[C@@H](Nc1nc(Cl)nc2c1CN(C(=O)[C@@H]1COCCN1C)C2)c1cccc(C(F)F)c1F [Example 321]	< 1000	< 400	< 1000	–
COC1(C(=O)N2Cc3nc(Cl)nc(N[C@H](C)c4cccc(C(F)F)c4F)c3C2)CN(C2COC2)C1 [Example 340]	< 1000	< 400	< 1000	–
COc1nccc(C(=O)N2Cc3nc(Cl)nc(N[C@H](C)c4cc(N)cc(C(F)(F)F)c4)c3C2)n1 [Example 72]	< 1000	> 400	< 1000	–

Structure (SMILES)	IC50 [1] [nM]	Kd [2] [nM]	IC50 [3, 4] [nM]	IC50 ([3]; PC-9, 1 h) [nM]
C[C@@H](Nc1nc(Cl)nc2c1CN(S(=O)(=O)C1CCOC1)CC2)c1cc(N)cc(C(F)(F)F)c1 (stereo partly drawn) [Example 449]	< 1000	< 400	< 1000	–
C[C@@H](Nc1nc(Cl)nc2c1CN(C(=O)CN1CCOCC1)C2)c1cccc(C(F)F)c1F [Example 292]	< 1000	< 400	< 1000	–
C[C@@H](Nc1nc(Cl)nc2c1CN(C(=O)c1cccc3c1OCCN3)C2)c1cc(N)cc(C(F)(F)F)c1 [Example 77]	< 1000	> 400	< 1000	–
C[C@@H](Nc1nc(Cl)nc2c1CN(C(=O)N1C[C@H]3C[C@@H]1CN3)C2)c1cccc(C(F)F)c1F [Example 406]	< 1000	< 400	< 1000	–
Cc1nc(N[C@H](C)c2cccc(C(F)F)c2F)c2c(n1)N(C)C(=O)N(C1CCN(C)CC1)C2 [Example 445, (R)-5-((1-(3-(difluoromethyl)-2-fluorophenyl)ethyl)amino)-1,7-dimethyl-3-(1-methylpiperidin-4-yl)-3,4-dihydropyrimido[4,5-d]pyrimidin-2(1H)-one]	< 1000	> 400	> 1000	–
C[C@@H](Nc1nc(Cl)nc2c1CN(C(=O)N1CCOC(F)(F)C1)C2)c1cccc(C(F)F)c1F [Example 411]	< 1000	< 400	< 1000	–
C[C@@H](Nc1nc(Cl)nc2c1CN(C(=O)C13COC(C1)C3)CC2)c1cc(N)cc(C(F)(F)F)c1 [Example 212]	> 1000	> 400	< 1000	–
C[C@@H](Nc1nc(Cl)nc2c1CN(C(=O)N1CCNC(c3ccncc3)C1)C2)c1cccc(C(F)F)c1F (stereo partly drawn) [Example 401]	< 1000	< 400	< 1000	–
C[C@@H](Nc1nc(Cl)nc2c1CN(C(=O)N1CCS(=O)(=O)CC1)C2)c1cc(N)cc(C(F)(F)F)c1 [Example 148]	< 1000	< 400	< 1000	–
Cc1nc2c(c(N[C@H](C)c3cc(N)cc(C(F)(F)F)c3)n1)CN(S(C)(=O)=O)C2 [Example 46, (R)—N-(1-(3-amino-5-(trifluoromethyl)phenyl)ethyl)-2-methyl-6-(methylsulfonyl)-6,7-dihydro-5H-pyrrolo[3,4-d]pyrimidin-4-amine]	> 1000	> 400	> 1000	–
C[C@@H](Nc1nc(Cl)nc2c1CN(C(=O)N1CCOCC1)C2)c1cccc2c1OCC2(F)F [Example 466, [2-chloro-4-[[(1R)-1-(3,3-difluoro-2H-benzofuran-7-yl)ethyl]amino]-5,7-dihydropyrrolo[3,4-d]pyrimidin-6-yl]-morpholino-methanone]	< 1000	< 400	< 1000	–
C[C@@H](Nc1nc(Cl)nc2c1CN(C(=O)C1C3COCC31)C2)c1cc(N)cc(C(F)(F)F)c1 (stereo partly drawn) [Example 94]	< 1000	< 400	< 1000	–
C[C@@H](Nc1nc(Cl)nc2c1CN(S(=O)(=O)N1CCOCC1)CC2)c1cccc(C(F)(F)CO)c1 [Example 181]	< 1000	< 400	< 1000	–
C[C@@H](Nc1nc(Cl)nc2c1CN(C(=O)N1CCOCC1)C2)c1cccc(C(F)(F)CN(C)C)c1 [Example 483, 2-chloro-N-[(1R)-1-{3-[2-(dimethylamino)-1,1-difluoroethyl]phenyl}ethyl]-6-(morpholine-4-carbonyl)-5H,6H,7H-pyrrolo[3,4-d]pyrimidin-4-amine]	< 1000	< 400	> 1000	–
COc1ccc(CC(=O)N2Cc3nc(Cl)nc(N[C@H](C)c4cc(N)cc(C(F)(F)F)c4)c3C2)cc1OC [Example 102]	> 1000	> 400	< 1000	–
COC1(C(=O)N2Cc3nc(Cl)nc(N[C@H](C)c4cccc(C(F)F)c4F)c3C2)CCN(CC(F)(F)F)CC1 [Example 344]	< 1000	< 400	< 1000	–
